Patent publication EP0354453A2, “Antimicrobial agent for animals” (priority 1988, dated 1990)
Values after ≈ are worked out from the molar mass of the structure shown.

Experiments:
[1] = test system: Bordetella bronchiaseptica OKM-1; experiment: in vitro antimicrobial activity (MIC), agar dilution, Part 2; assay type: cell-based; conditions: Bordetella, OKM1, Bordetella bronchiaseptica OKM-1, Pig; read-out: MIC
Experimental: (§1) Test microorganisms listed in Table 2 were cultured overnight in heart infusion nutrient broth (produced by Eiken Chemical Co., Ltd.). Culture broth containing about 10⁸/ml cells was diluted to a volume of 100 times. An aliquot (about 0.05 ml) of the diluted broth was inoculated onto a Mueller Hinton agar plate (produced by Eiken Chemical Co., Ltd.) to which Compound No. 1 was added in a prescribed concentration. […]
(§2) MIC of Compounds (1)-(8) against various pathogenic bacteria derived from animals was determined in the same manner as in Example 1.

[2] = test system: Escherichia coli 139; experiment: as above; assay type: cell-based; conditions: Escherichia coli 139, Cow; read-out: MIC
Experimental: as §1, §2

[3] = test system: Escherichia coli 881; experiment: as above; assay type: cell-based; conditions: Escherichia coli, 881, Escherichia coli 881, Pig; read-out: MIC
Experimental: as §1, §2

[4] = test system: Escherichia coli S6W; experiment: as above; assay type: cell-based; conditions: Escherichia coli, S6W, Escherichia coli S6W, Chicken; read-out: MIC
Experimental: as §1, §2

[5] = test system: Pasteurella multocida DB-12-1; experiment: as above; assay type: cell-based; conditions: DB121; Pasteurella multocida DB-12-1, Pig; read-out: MIC
Experimental: as §1, §2

[6] = test system: Salmonella typhimurium 103; experiment: as above; assay type: cell-based; conditions: Salmonella enterica; Salmonella typhimurium 103, Chicken; read-out: MIC
Experimental: as §1, §2

[7] = test system: Salmonella typhimurium 569; experiment: as above; assay type: cell-based; conditions: Salmonella enterica, TYPHIMURIUM, Salmonella typhimurium 569, Pig; read-out: MIC
Experimental: as §1, §2

[8] = test system: Staphylococcus aureus Yamaguchi 6; experiment: as above; assay type: cell-based; conditions: Staphylococcus aureus Yamaguchi 6, Chicken; read-out: MIC
Experimental: as §1, §2

[9] = test system: Mycoplasma gallisepticum Strain 2004; experiment: in vitro antimicrobial activity (MIC) in Frey liquid medium; assay type: cell-based; conditions: Mycoplasmoides gallisepticum, STRAIN2004; Mycoplasma gallisepticum Strain 2004, from chicken; Frey liquid medium, 37°C, 3-5 days; read-out: MIC
Experimental: (§3) Various test strains of Mycoplasma gallisepticum derived from chicken were cultured in a Frey liquid medium for Mycoplasma for 3 days. The culture broth containing about 10⁸/ml cells was diluted to a volume of 100 times. The diluted broth was inoculated into Frey liquid media for Mycoplasma to which the compounds of this invention were added at prescribed concentrations. The cells were incubated at 37°C for 3-5 days while daily observing the color of the media. Among the culture broths maintaining yellow color at the time when the control to which no test compound was added turned red, the concentration of the broth having the minimum concentration was taken as the MIC of the compound.

[10] = test system: Mycoplasma gallisepticum Strain 2012; experiment: as above; assay type: cell-based; conditions: Mycoplasmoides gallisepticum, STRAIN2012; Mycoplasma gallisepticum Strain 2012, from chicken; Frey liquid medium, 37°C, 3-5 days; read-out: MIC
Experimental: as §3

[11] = test system: Mycoplasma gallisepticum Strain DP-1047; experiment: as above; assay type: cell-based; conditions: Mycoplasmoides gallisepticum; Mycoplasma gallisepticum Strain DP-1047, from chicken; Frey liquid medium, 37°C, 3-5 days; read-out: MIC
Experimental: as §3

[12] = test system: Mycoplasma gallisepticum Strain T-2; experiment: as above; assay type: cell-based; conditions: Mycoplasmoides gallisepticum; Mycoplasma gallisepticum Strain T-2, from chicken; Frey liquid medium, 37°C, 3-5 days; read-out: MIC
Experimental: as §3

[13] = test system: Mycoplasma gallisepticum Strain T-7; experiment: as above; assay type: cell-based; conditions: Mycoplasmoides gallisepticum, Mycoplasma gallisepticum Strain T-7, from chicken, 37°C, 3-5 days
Experimental: as §3

[14] = test system: Mycoplasma gallisepticum; experiment: Effect of oral administration on chicken inoculated with Mycoplasma gallisepticum; assay type: in vivo; conditions: for Chickens developing disease in air sac (naked eye observation) / No. of dead chickens: 5 tested chickens
Experimental: Mycoplasma gallisepticum cells collected from chickens having respiratory Mycoplasma infection were cultured for 3 days in a Frey liquid media for Mycoplasma. 0.2 ml of this culture broth was injected into the trachea of chickens of an average body weight of 80 g using a 1 ml disposable injection needle. Beginning from the next day following the inoculation, feeds to which Compound (1) had been added in the amount of 100 ppm, 75 ppm, or 50 ppm were freely given to the chickens for 5 days. Following the administration of Compound (1) the chickens were given feed containing no drug for a further 5 days. The surviving chickens were sacrificed and dissected. After examination of the degree of disease in the air sac, Mycoplasma gallisepticum in the infraorbital sinus, trachea, lung, and air sac were determined. […] TABLE 6 […]

[15] = Acute toxicity test, intravenous injection; assay type: in vivo
Experimental: Representative test compounds, Compounds (2) and (3), were intravenously injected to mice. No fatality occurred at a dose of 200 mg/kg (10 mice/group), for Compound (2), and a dose of 200 mg/kg (6 mice/group), for Compound (3). From the results, the LD₅₀ values of the compounds are considered to be greater than 200 mg/kg.

For CCCN1CCN(c2c(F)cc3c(=O)c(C(=O)O)cn4c3c2OCC4C)CC1 (racemic) [Compound (3), 3(RS)-9-fluoro-2,3-dihydro-3-methyl-10-(4-n-propyl-1-piperazinyl)-7-oxo-7H-pyrido[1,2,3-de] [1,4]benzoxazine-6-carboxylic acid], the MIC [1] was 0.78 µg/mL (≈ 2 µM), the MIC [2] was 0.39 µg/mL (≈ 1 µM) and the MIC [3] was 0.2 µg/mL (≈ 0.514 µM). For the same molecule, the MIC [4] was 0.39 µg/mL (≈ 1 µM), the MIC [5] was 0.1 µg/mL (≈ 0.257 µM) and the MIC [6] was 0.78 µg/mL (≈ 2 µM). The MIC [7] was 0.39 µg/mL (≈ 1 µM), the MIC [8] was 0.78 µg/mL (≈ 2 µM) and the MIC [9] was 0.025 µg/mL (≈ 0.0642 µM). The MIC [10] was 0.05 µg/mL (≈ 0.128 µM), the MIC [11] was 0.2 µg/mL (≈ 0.514 µM) and the MIC [12] was 0.2 µg/mL (≈ 0.514 µM). The MIC [13] was 0.39 µg/mL (≈ 1 µM), the “Mycoplasma gallisepticum collected in Air sac” value ([14]; 50 ppm in feed for 5 days) was 3.24 Logarithmic number of collected cells per 1 g of tissue and the “Mycoplasma gallisepticum collected in Infraorbital sinus” value ([14]; 50 ppm in feed for 5 days) was 0/5. For the same molecule, the “Mycoplasma gallisepticum collected in Lung” value ([14]; 50 ppm in feed for 5 days) was 2.38 Logarithmic number of collected cells per 1 g of tissue, the “Mycoplasma gallisepticum collected in Trachea” value ([14]; 50 ppm in feed for 5 days) was 0 Logarithmic number of collected cells per 1 g of tissue and the “Chickens developing disease in air sac (naked eye observation)” value (“Chickens developing disease in air sac” for short) ([14]; 50 ppm in feed for 5 days) was 0. The “No. of dead chickens” value ([14]; 50 ppm in feed for 5 days) was 0, the “Mycoplasma gallisepticum collected in Air sac” value ([14]; 75 ppm in feed for 5 days) was 0 Logarithmic number of collected cells per 1 g of tissue and the “Mycoplasma gallisepticum collected in Infraorbital sinus” value ([14]; 75 ppm in feed for 5 days) was 0/5. For the same molecule, the “Mycoplasma gallisepticum collected in Lung” value ([14]; 75 ppm in feed for 5 days) was 0 Logarithmic number of collected cells per 1 g of tissue, the “Mycoplasma gallisepticum collected in Trachea” value ([14]; 75 ppm in feed for 5 days) was 0 Logarithmic number of collected cells per 1 g of tissue and the “Chickens developing disease in air sac” value ([14]; 75 ppm in feed for 5 days) was 0. The “No. of dead chickens” value ([14]; 75 ppm in feed for 5 days) was 0, the “Mycoplasma gallisepticum collected in Air sac” value ([14]; 100 ppm in feed for 5 days) was 0 Logarithmic number of collected cells per 1 g of tissue and the “Mycoplasma gallisepticum collected in Infraorbital sinus” value ([14]; 100 ppm in feed for 5 days) was 0/5. The “Mycoplasma gallisepticum collected in Lung” value ([14]; 100 ppm in feed for 5 days) was 0 Logarithmic number of collected cells per 1 g of tissue, the “Mycoplasma gallisepticum collected in Trachea” value ([14]; 100 ppm in feed for 5 days) was 0 Logarithmic number of collected cells per 1 g of tissue and the “Chickens developing disease in air sac” value ([14]; 100 ppm in feed for 5 days) was 0. The “No. of dead chickens” value ([14]; 100 ppm in feed for 5 days) was 0, the fatality ([15]; mice, intravenously injected, dose of 200 mg/kg) was “No fatality” and the LD50 ([15]; mouse, in vivo, iv) was greater than 200 mg/kg.
